Data published in patent publication US12371428B2 (Exelixis, Inc., priority 2019, dated 2025).

How the values were obtained:
[1] = target: KDR (phospho-KDR, VEGF165-stimulated HUVEC cells) (Homo sapiens (Human), UniProt P35968); experiment: KDR autophosphorylation ELISA in HUVEC cells (Example G); assay type: cell-based; conditions: cellular activity; KDR autophosphorylation ELISA in HUVEC cells
How it was run: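 Read-out: phospho-KDR in cell lysates by DuoSet IC ELISA, normalised between VEGF-stimulated DMSO wells (100%) and unstimulated wells (0%). Human endothelial cells were starved overnight in serum-free medium, exposed to compound for 1 h, and then pulsed with 100 ng/mL VEGF165 for 5 min.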

[2] = target: Met (phospho-Met, HGF-stimulated PC-3 prostate cancer cells) (Homo sapiens (Human), UniProt P08581); experiment: Met autophosphorylation ELISA in PC-3 cells (Example F); assay type: cell-based; conditions: cellular activity; Met autophosphorylation ELISA in PC-3 cells; read-out: c-Met IC50
How it was run: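 Compounds were tested on HGF-stimulated PC-3 cells. After 24 h culture and 3 h serum starvation, cells got compound for 1 h and 100 ng/mL HGF for 10 min, and Met tyrosine phosphorylation was measured by ELISA.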

KDR (phospho-KDR, VEGF165-stimulated HUVEC cells), sequence (P35968 20-1356): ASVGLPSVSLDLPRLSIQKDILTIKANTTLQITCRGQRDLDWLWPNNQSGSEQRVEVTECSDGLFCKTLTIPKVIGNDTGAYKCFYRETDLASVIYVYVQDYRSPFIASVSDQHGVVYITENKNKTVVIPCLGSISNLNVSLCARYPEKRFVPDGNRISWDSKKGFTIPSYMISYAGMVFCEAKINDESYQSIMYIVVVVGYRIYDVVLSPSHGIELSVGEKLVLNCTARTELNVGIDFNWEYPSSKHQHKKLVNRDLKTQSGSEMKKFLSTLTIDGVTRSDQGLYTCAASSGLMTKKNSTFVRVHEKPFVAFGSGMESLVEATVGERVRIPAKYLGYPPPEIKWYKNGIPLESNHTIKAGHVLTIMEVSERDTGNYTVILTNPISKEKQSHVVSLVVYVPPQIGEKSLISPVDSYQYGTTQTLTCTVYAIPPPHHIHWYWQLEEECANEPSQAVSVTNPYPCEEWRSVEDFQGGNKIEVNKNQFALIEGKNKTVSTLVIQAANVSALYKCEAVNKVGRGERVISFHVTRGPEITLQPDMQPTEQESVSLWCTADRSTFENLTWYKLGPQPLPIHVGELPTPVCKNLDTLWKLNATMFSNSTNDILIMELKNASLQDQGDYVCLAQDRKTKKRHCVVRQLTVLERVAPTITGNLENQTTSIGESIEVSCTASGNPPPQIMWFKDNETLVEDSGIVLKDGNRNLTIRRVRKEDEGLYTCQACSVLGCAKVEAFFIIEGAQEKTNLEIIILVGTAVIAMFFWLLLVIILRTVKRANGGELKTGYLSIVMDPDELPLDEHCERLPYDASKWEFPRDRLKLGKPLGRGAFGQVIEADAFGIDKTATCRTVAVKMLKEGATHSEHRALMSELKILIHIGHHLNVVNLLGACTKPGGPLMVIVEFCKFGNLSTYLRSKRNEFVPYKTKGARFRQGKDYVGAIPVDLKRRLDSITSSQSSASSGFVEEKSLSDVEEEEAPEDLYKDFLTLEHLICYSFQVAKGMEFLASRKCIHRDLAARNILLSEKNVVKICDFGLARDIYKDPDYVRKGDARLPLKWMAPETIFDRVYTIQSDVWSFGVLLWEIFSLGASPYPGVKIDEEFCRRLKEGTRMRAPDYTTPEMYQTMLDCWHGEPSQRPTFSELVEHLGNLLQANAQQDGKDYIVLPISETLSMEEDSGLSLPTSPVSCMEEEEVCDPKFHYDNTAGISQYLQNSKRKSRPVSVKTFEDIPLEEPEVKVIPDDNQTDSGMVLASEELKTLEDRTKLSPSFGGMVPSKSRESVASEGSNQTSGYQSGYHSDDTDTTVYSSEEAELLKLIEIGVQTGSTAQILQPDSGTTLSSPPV
Met (phospho-Met, HGF-stimulated PC-3 prostate cancer cells), sequence (P08581 25-1390): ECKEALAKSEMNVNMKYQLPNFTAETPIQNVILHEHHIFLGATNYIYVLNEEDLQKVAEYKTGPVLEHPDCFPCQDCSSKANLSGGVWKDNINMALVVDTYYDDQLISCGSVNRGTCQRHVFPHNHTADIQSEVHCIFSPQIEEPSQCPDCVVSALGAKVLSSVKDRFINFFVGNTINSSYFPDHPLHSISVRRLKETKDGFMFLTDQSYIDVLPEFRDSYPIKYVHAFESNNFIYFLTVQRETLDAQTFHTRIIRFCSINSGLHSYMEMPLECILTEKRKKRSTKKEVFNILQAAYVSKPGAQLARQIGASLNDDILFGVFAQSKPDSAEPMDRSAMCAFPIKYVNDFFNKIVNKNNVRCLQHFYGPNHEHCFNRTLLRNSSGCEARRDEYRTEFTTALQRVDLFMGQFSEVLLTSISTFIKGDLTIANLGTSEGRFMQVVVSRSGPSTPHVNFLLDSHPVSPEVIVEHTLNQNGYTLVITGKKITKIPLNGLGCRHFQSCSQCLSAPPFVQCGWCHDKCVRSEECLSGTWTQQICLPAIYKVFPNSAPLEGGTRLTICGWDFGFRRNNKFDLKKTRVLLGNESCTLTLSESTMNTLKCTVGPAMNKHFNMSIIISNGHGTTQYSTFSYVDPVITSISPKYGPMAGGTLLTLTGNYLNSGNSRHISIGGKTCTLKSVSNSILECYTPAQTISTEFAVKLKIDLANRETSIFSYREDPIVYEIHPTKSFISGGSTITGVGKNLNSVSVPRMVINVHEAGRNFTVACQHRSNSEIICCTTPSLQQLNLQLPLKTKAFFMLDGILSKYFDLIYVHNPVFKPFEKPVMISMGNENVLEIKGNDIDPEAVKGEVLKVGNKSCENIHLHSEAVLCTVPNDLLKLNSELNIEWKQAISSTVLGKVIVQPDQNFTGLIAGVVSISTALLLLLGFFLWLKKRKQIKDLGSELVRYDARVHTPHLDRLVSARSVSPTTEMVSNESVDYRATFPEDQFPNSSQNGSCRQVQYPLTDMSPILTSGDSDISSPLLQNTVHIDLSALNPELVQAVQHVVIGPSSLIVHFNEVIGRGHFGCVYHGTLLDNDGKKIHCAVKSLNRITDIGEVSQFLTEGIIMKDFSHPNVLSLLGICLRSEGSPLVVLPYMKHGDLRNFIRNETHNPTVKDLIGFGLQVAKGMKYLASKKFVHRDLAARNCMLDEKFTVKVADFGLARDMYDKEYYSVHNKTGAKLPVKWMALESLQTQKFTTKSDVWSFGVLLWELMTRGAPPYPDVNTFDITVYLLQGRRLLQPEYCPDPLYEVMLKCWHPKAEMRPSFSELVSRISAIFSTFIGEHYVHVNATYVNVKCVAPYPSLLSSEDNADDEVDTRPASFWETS

| SMILES | IC50 [1] | IC50 [2] |
| --- | --- | --- |
| COc1cnc2c(Oc3ccc(NC(=O)c4cnc(C)c(-c5c(C)cc(F)cc5C)c4O)cc3F)ccnc2c1 [Compound 417, 5-(4-fluoro-2,6-dimethylphenyl)-N-[3-fluoro-4-[(7-methoxy-1,5-naphthyridin-4-yl)oxy]phenyl]-4-hydroxy-6-methylpyridine-3-carboxamide] | 0.1 to 0.3 µM | < 0.1 µM |
| CCc1cnc2c(Oc3ccc(NC(=O)c4cnc(C)c(-c5ccc(F)cc5)c4O)cc3F)ccnc2c1 [Compound 418, N-[4-[(7-ethyl-1,5-naphthyridin-4-yl)oxy]-3-fluorophenyl]-5-(4-fluorophenyl)-4-hydroxy-6-methylpyridine-3-carboxamide] | < 0.1 µM | < 0.1 µM |
| CCc1cnc2c(Oc3ccc(NC(=O)c4cnc(C)c(-c5ccc(F)cc5C)c4O)cc3F)ccnc2c1 [Compound 419, N-[4-[(7-ethyl-1,5-naphthyridin-4-yl)oxy]-3-fluorophenyl]-5-(4-fluoro-2-methylphenyl)-4-hydroxy-6-methylpyridine-3-carboxamide] | < 0.1 µM | < 0.1 µM |
| C=Cc1cc2nccc(Oc3ccc(NC(=O)c4cnc(C)c(-c5ccc(F)cc5)c4O)cc3F)c2nc1OC [Compound 422, N-[4-[(7-ethenyl-6-methoxy-1,5-naphthyridin-4-yl)oxy]-3-fluorophenyl]-5-(4-fluorophenyl)-4-hydroxy-6-methylpyridine-3-carboxamide] | < 0.1 µM | < 0.1 µM |
| COc1cc2nccc(Oc3ccc(NC(=O)c4cnc(C)c(-c5ccc(F)cc5)c4O)cc3F)c2nc1OCCCN1CCOCC1 [Compound 424, N-[3-fluoro-4-[[7-methoxy-6-(3-morpholin-4-ylpropoxy)-1,5-naphthyridin-4-yl]oxy]phenyl]-5-(4-fluorophenyl)-4-hydroxy-6-methylpyridine-3-carboxamide] | < 0.1 µM | < 0.1 µM |
| Cc1cc2nccc(Oc3ccc(NC(=O)c4cnc(C)c(-c5ccc(F)cc5)c4O)cc3F)c2nc1F [Compound 426, N-[3-fluoro-4-[(6-fluoro-7-methyl-1,5-naphthyridin-4-yl)oxy]phenyl]-5-(4-fluorophenyl)-4-hydroxy-6-methylpyridine-3-carboxamide] | < 0.1 µM | < 0.1 µM |
| Cc1cc(F)ccc1-c1c(C)nc(C)c(C(=O)Nc2ccc(Oc3ccnc4cc(C)c(F)nc34)c(F)c2)c1O [Compound 428, N-[3-fluoro-4-[(6-fluoro-7-methyl-1,5-naphthyridin-4-yl)oxy]phenyl]-5-(4-fluoro-2-methylphenyl)-4-hydroxy-2,6-dimethylpyridine-3-carboxamide] | < 0.1 µM | < 0.1 µM |
| Cc1cc(F)ccc1-c1c(C)nnc(C(=O)Nc2ccc(Oc3ccnc4cc(C)c(F)nc34)c(F)c2)c1O [Compound 430, N-[3-fluoro-4-[(6-fluoro-7-methyl-1,5-naphthyridin-4-yl)oxy]phenyl]-5-(4-fluoro-2-methylphenyl)-4-hydroxy-6-methylpyridazine-3-carboxamide] | > 0.3 µM | < 0.1 µM |
| COc1nc2c(Oc3ccc(NC(=O)c4c(C)nc(C)c(-c5ccc(F)cc5)c4O)cc3F)ccnc2cc1O [Compound 431, N-[3-fluoro-4-[(7-hydroxy-6-methoxy-1,5-naphthyridin-4-yl)oxy]phenyl]-5-(4-fluorophenyl)-4-hydroxy-2,6-dimethylpyridine-3-carboxamide] | < 0.1 µM | < 0.1 µM |
| COCCOc1nc2c(Oc3ccc(NC(=O)c4cnc(C)c(-c5ccc(F)cc5)c4O)cc3F)ccnc2cc1C [Compound 436, N-[3-fluoro-4-[[6-(2-methoxyethoxy)-7-methyl-1,5-naphthyridin-4-yl]oxy]phenyl]-5-(4-fluorophenyl)-4-hydroxy-6-methylpyridine-3-carboxamide] | < 0.1 µM | < 0.1 µM |
| COCCOc1nc2c(Oc3ccc(NC(=O)c4cnc(C)c(-c5ccc(F)cc5)c4O)cc3)ccnc2cc1C [Compound 437, 5-(4-fluorophenyl)-4-hydroxy-N-[4-[[6-(2-methoxyethoxy)-7-methyl-1,5-naphthyridin-4-yl]oxy]phenyl]-6-methylpyridine-3-carboxamide] | < 0.1 µM | < 0.1 µM |
| Cc1cc2nccc(Oc3ccc(NC(=O)c4cnc(C)c(-c5ccc(F)cc5)c4O)cc3F)c2nc1OCCCN1CCOCC1 [Compound 438, N-[3-fluoro-4-[[7-methyl-6-(3-morpholin-4-ylpropoxy)-1,5-naphthyridin-4-yl]oxy]phenyl]-5-(4-fluorophenyl)-4-hydroxy-6-methylpyridine-3-carboxamide] | < 0.1 µM | < 0.1 µM |

More lines, now with the values ahead:

| IC50 [1] | IC50 [2] | SMILES |
| --- | --- | --- |
| < 0.1 µM | < 0.1 µM | COc1cc2nccc(Oc3ccc(NC(=O)c4cnc(C)c(-c5ccc(F)cc5)c4O)cc3F)c2nc1OC(C)C [Compound 415, N-[3-fluoro-4-[(7-methoxy-6-propan-2-yloxy-1,5-naphthyridin-4-yl)oxy]phenyl]-5-(4-fluorophenyl)-4-hydroxy-6-methylpyridine-3-carboxamide] |
| < 0.1 µM | < 0.1 µM | COc1cc2nccc(Oc3ccc(NC(=O)c4cnc(C)c(-c5ccc(F)cc5C)c4O)cc3F)c2nc1OC(C)C [Compound 416, N-[3-fluoro-4-[(7-methoxy-6-propan-2-yloxy-1,5-naphthyridin-4-yl)oxy]phenyl]-5-(4-fluoro-2-methylphenyl)-4-hydroxy-6-methylpyridine-3-carboxamide] |
| < 0.1 µM | < 0.1 µM | CCc1cc2nccc(Oc3ccc(NC(=O)c4cnc(C)c(-c5ccc(F)cc5)c4O)cc3F)c2nc1OC [Compound 420, N-[4-[(7-ethyl-6-methoxy-1,5-naphthyridin-4-yl)oxy]-3-fluorophenyl]-5-(4-fluorophenyl)-4-hydroxy-6-methylpyridine-3-carboxamide] |
| < 0.1 µM | < 0.1 µM | CCc1cc2nccc(Oc3ccc(NC(=O)c4cnc(C)c(-c5ccc(F)cc5C)c4O)cc3F)c2nc1OC [Compound 421, N-[4-[(7-ethyl-6-methoxy-1,5-naphthyridin-4-yl)oxy]-3-fluorophenyl]-5-(4-fluoro-2-methylphenyl)-4-hydroxy-6-methylpyridine-3-carboxamide] |
| < 0.1 µM | < 0.1 µM | C=Cc1cc2nccc(Oc3ccc(NC(=O)c4cnc(C)c(-c5ccc(F)cc5C)c4O)cc3F)c2nc1OC [Compound 423, N-[4-[(7-ethenyl-6-methoxy-1,5-naphthyridin-4-yl)oxy]-3-fluorophenyl]-5-(4-fluoro-2-methylphenyl)-4-hydroxy-6-methylpyridine-3-carboxamide] |
| < 0.1 µM | < 0.1 µM | COc1cc2nccc(Oc3ccc(NC(=O)c4cnc(C)c(-c5ccc(F)cc5C)c4O)cc3F)c2nc1OCCCN1CCOCC1 [Compound 425, N-[3-fluoro-4-[[7-methoxy-6-(3-morpholin-4-ylpropoxy)-1,5-naphthyridin-4-yl]oxy]phenyl]-5-(4-fluoro-2-methylphenyl)-4-hydroxy-6-methylpyridine-3-carboxamide] |
| < 0.1 µM | < 0.1 µM | Cc1cc(F)ccc1-c1c(C)ncc(C(=O)Nc2ccc(Oc3ccnc4cc(C)c(F)nc34)c(F)c2)c1O [Compound 427, N-[3-fluoro-4-[(6-fluoro-7-methyl-1,5-naphthyridin-4-yl)oxy]phenyl]-5-(4-fluoro-2-methylphenyl)-4-hydroxy-6-methylpyridine-3-carboxamide] |
| > 0.3 µM | < 0.1 µM | Cc1cc(F)ccc1-c1c(C)n(C)cc(C(=O)Nc2ccc(Oc3ccnc4cc(C)c(F)nc34)c(F)c2)c1=O [Compound 429, N-[3-fluoro-4-[(6-fluoro-7-methyl-1,5-naphthyridin-4-yl)oxy]phenyl]-5-(4-fluoro-2-methylphenyl)-1,6-dimethyl-4-oxopyridine-3-carboxamide] |
| < 0.1 µM | < 0.1 µM | COCCOc1cc2nccc(Oc3ccc(NC(=O)c4c(C)nc(C)c(-c5ccc(F)cc5)c4O)cc3F)c2nc1OC [Compound 432, N-[3-fluoro-4-[[6-methoxy-7-(2-methoxyethoxy)-1,5-naphthyridin-4-yl]oxy]phenyl]-5-(4-fluorophenyl)-4-hydroxy-2,6-dimethylpyridine-3-carboxamide] |
| > 0.3 µM | < 0.1 µM | COc1cc2nccc(Oc3ccc(NC(=O)c4cn(C5CC5)c(C)c(-c5ccc(F)cc5)c4=O)cc3F)c2nc1OC [Compound 433, 1-cyclopropyl-N-[4-[(6,7-dimethoxy-1,5-naphthyridin-4-yl)oxy]-3-fluorophenyl]-5-(4-fluorophenyl)-6-methyl-4-oxopyridine-3-carboxamide] |
| > 0.3 µM | < 0.1 µM | COc1cc2nccc(Oc3ccc(NC(=O)c4cn(C5CC5)c(C)c(-c5ccc(F)cc5)c4=O)cc3)c2nc1OC [Compound 434, 1-cyclopropyl-N-[4-[(6,7-dimethoxy-1,5-naphthyridin-4-yl)oxy]phenyl]-5-(4-fluorophenyl)-6-methyl-4-oxopyridine-3-carboxamide] |
| > 0.3 µM | < 0.1 µM | COc1ccc2nccc(Oc3ccc(NC(=O)c4cn(C5CC5)c(C)c(-c5ccc(F)cc5)c4=O)cc3F)c2n1 [Compound 435, 1-cyclopropyl-N-[3-fluoro-4-[(6-methoxy-1,5-naphthyridin-4-yl)oxy]phenyl]-5-(4-fluorophenyl)-6-methyl-4-oxopyridine-3-carboxamide] |
| > 0.3 µM | < 0.1 µM | COc1cc2nccc(Oc3ccc(NC(=O)c4cn(C5CC5)c(C)c(-c5ccc(F)cc5C)c4=O)cc3F)c2nc1OC [Compound 439, 1-cyclopropyl-N-[4-[(6,7-dimethoxy-1,5-naphthyridin-4-yl)oxy]-3-fluorophenyl]-5-(4-fluoro-2-methylphenyl)-6-methyl-4-oxopyridine-3-carboxamide] |
